Measured values taken from US7915293B2, “Ubiquitin ligase inhibitors” (Rigel Pharmaceuticals, Inc., priority 2003, dated 2011).

Key:
Parameters in all cases: key: “+” indicates that the compound exibits inhibitory activity; “−” indicates that low or no inhibitory activity was observed
[1] = target: E3 (His-APC11/APC2-"APC") (Homo sapiens, UniProt Q9NYG5+Q9UJX6); assay: Plate-based E3 ligase assay (APC FLAG), auto-ubiquitination; assay type: biochemical; details: for APC Flag 8 pt: 8 concentrations tested
Summary of the method: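 His-APC11/APC2 auto-ubiquitination was run in casein-blocked nickel plates for 1 h at room temperature, with E1 at 5 ng/well, UbcH5c at 20 ng/well and APC at 100 ng/well. Buffer was 62.5 mM Tris pH 7.6, 3 mM MgCl2, 1 mM DTT, 2.5 mM ATP and Flag-ubiquitin at 100 ng/well. Detection used anti-Flag/HRP chemiluminescence, and IC50 was typically from 6 or 8 concentrations versus a DMSO control.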

[2] = system: HeLa cells; assay: Cell proliferation assay, photographic image analysis of proliferation, apoptosis and death (PAD assay), HeLa; assay type: cell-based; details: 6 concentrations tested
Description: (§1) A549 (ATCC# CCL-185), HeLa (ATCC# CCL-2), HCT116 (ATCC# CCL-247), and H1299 (ATCC# CRL-5803) cells were maintained in T175 flasks following the ATCC recommended media and handling procedures. Flasks reaching approximately 70% confluency were trypsinized and resuspended in RPMI media (Cell-Gro catalog number 10-040-CM) modified to contain 5% FBS, 100 ug/mlPen/Strep (Cell-Gro catalog number 30-002-CL), and 0.3 mg/ml L-Glutamine (Cell-Gro catalog number 25-003-CL). A 20,000 cells/ml solution was made for plating. Cells were plated in black Packard 96 well plates by placing 100 μl per well (2,000 cells per well).
(§2) Compounds and additional media were added 24 hours after cell plating. A compound master plate was created with concentrations 500 times greater than the final concentration added to the cells. All compound testing was done in duplicate using 6.3 fold dilutions starting with 10 mM. All outside wells (and 4 internal wells) were DMSO controls. Taxol and at least one additional control were run on all plates. Three microliters of the compound master plate were added to deep well blocks containing 750 μl of RPMI media. One hundred microliters were transferred from the compound/media deep well blocks to the plated cells resulting in a 500 fold dilution of the compounds. Cells were grown at 37° C., 5% CO2 for 48 hours.
(§3) Cells to be analyzed by photography were fixed and stained. One hundred microliters of media were removed and 100 μl of 9.3% […] was added to each well. Plates were left on the benchtop for 45 minutes. A staining solution containing 1.55 μl of 1 mg/ml DAPI added to 18.75 ml PBS was warmed for 15 minutes at 37° C. The cells were aspirated prior to washing with 100 μl of PBS. Seventy microliters of PBS were aspirated and 170 μl of the DAPI solution were added to each well of fixed cells. Plates were left at room temperature for one hour then aspirated and washed twice with 100 μl of PBS. The stained cells were left at 4° C. for a minimum of 16 hours before photographic analysis with Array Scan II (Cellomics). Analysis of the photographic images to determine numbers of live cells (proliferation), apoptotic cells and dead cells, were according to the methods described in U.S. Provisional Patent Application Ser. No. 60/406,714, which incorporated herein in its entirety.

[3] = system: A549 cells; assay: Cell proliferation assay, photographic image analysis of proliferation, apoptosis and death (PAD assay), A549; assay type: cell-based; details: 6 concentrations tested
Description: as §1, §2, §3

E3 (His-APC11/APC2-"APC"), sequence (Q9NYG5 whole entry): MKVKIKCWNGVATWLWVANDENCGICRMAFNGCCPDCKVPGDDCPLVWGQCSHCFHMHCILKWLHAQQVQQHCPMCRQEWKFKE
E3 (His-APC11/APC2-"APC"), sequence (Q9UJX6 whole entry): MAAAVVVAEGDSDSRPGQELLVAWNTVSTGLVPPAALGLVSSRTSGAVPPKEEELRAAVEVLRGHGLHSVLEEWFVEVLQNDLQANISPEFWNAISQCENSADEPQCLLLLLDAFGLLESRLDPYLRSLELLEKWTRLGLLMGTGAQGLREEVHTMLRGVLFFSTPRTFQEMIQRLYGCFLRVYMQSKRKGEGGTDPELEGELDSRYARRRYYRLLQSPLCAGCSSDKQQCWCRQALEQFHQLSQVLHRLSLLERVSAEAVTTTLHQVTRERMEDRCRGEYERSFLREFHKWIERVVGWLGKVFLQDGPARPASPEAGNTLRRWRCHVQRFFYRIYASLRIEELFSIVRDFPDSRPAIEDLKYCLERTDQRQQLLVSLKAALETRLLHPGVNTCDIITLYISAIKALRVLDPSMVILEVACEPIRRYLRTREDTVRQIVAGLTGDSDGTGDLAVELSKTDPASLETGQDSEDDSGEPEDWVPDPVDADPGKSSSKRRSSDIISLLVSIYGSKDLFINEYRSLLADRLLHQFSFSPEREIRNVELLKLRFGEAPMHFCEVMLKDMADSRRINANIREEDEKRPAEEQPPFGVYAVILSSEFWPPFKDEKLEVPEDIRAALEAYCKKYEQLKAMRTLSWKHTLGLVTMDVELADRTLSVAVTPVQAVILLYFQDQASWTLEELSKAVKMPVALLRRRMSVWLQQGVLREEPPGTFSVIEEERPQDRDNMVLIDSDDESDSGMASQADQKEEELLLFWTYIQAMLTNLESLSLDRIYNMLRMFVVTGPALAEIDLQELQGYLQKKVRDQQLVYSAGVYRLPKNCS

Row | APC Flag (2 pt) ([1]; 2 concentrations tested) | APC Flag 8 pt [1] | SMILES | PAD Assay, HELA 6 pt [2] | PAD Assay, A549 6 pt [3]
1 | − (2 pt) |  | O=[N+]([O-])c1ccc(Oc2c(Cl)cc(S(=O)(=O)Nc3ccccn3)cc2Cl)c(Cl)c1 [Compound 216, 3,5-dichloro-4-(2-chloro-4-nitrophenoxy)-N-pyridin-2-ylbenzenesulfonamide] | + | +
2 |  | + | O=[N+]([O-])c1ccc(Oc2c(Cl)cc(S(=O)(=O)Nc3ccc(C(F)(F)F)cc3Cl)cc2Cl)c(Cl)c1 [Compound 240, 3,5-dichloro-4-(2-chloro-4-nitrophenoxy)-N-[2-chloro-4-(trifluoromethyl)phenyl]benzenesulfonamide] | + | +
3 |  | + | Cc1ccc(F)cc1NS(=O)(=O)c1cc(Cl)c(Oc2ccc([N+](=O)[O-])cc2Cl)c(Cl)c1 [Compound 242, 3,5-dichloro-4-(2-chloro-4-nitrophenoxy)-N-(5-fluoro-2-methylphenyl)benzene sulfonamide] | + | +
4 |  |  | O=S(=O)(Nc1ccc(Oc2ncccn2)c(Cl)c1)c1cccc(Cl)c1 [Compound 292, 3-chloro-N-[3-chloro-4-(pyrimidin-2-yloxy)phenyl]benzenesulfonamide] | − | +
5 |  |  | O=S(=O)(Nc1ccc(Oc2ncc(C(F)(F)F)cc2Cl)cc1)c1cccc(Cl)c1 [Compound 294, 3-chloro-N-(4-(3-chloro-5-(trifluoromethyl)pyridyn-2-yloxy)phenyl)benzenesulfonamide] | + | +
6 |  |  | O=C(Nc1cccc(Cl)c1)N1CCC(Oc2ccccc2C(F)(F)F)CC1 [Compound 305, N-(3-chlorophenyl)-4-(2-(trifluoromethyl)phenoxy)piperidine-1-carboxamide] | + | +
7 |  | + | O=[N+]([O-])c1ccc(Oc2c(Cl)cc(S(=O)(=O)Nc3ccc(F)cc3F)cc2Cl)c(Cl)c1 [Example 17, 3,5-dichloro-4-(2-chloro-4-nitrophenoxy)-N-(2,4-difluorophenyl)benzene-sulfonamide] |  | −
8 |  | − | CC1CN(S(=O)(=O)c2cc(Cl)c(Oc3ccc([N+](=O)[O-])cc3Cl)c(Cl)c2)CC(C)O1 (stereo not drawn) [Example 18, 4-{[3,5-dichloro-4-(2-chloro-4-nitrophenoxy)phenyl]sulfonyl}-2,6-dimethylmorpholine] |  | −
9 |  | − | O=[N+]([O-])c1ccc(Oc2c(Cl)cc(S(=O)(=O)N3CCCCC3)cc2Cl)c(Cl)c1 [Example 21, 1-{[3,5-dichloro-4-(2-chloro-4-nitrophenoxy)phenyl]sulfonyl}piperidine] |  | −
10 |  | + | N=C(NS(=O)(=O)c1cc(Cl)c(Oc2ccc([N+](=O)[O-])cc2Cl)c(Cl)c1)c1ccc(Cl)cc1 [Example 25, 4-chloro-N-{[3,5-dichloro-4-(2-chloro-4-nitrophenoxy)phenyl]sulfonyl}benzene-carboximidamide] |  | −
11 |  | − | N=C(NS(=O)(=O)c1cc(Cl)c(Oc2ccc([N+](=O)[O-])cc2Cl)c(Cl)c1)c1cccnc1 [Example 26, N-{[3,5-dichloro-4-(2-chloro-4-nitrophenoxy)phenyl]sulfonyl}pyridine-3-carboximidamide] |  | +
12 |  | − | N=C(NS(=O)(=O)c1cc(Cl)c(Oc2ccc([N+](=O)[O-])cc2Cl)c(Cl)c1)c1ccccn1 [Example 27, N-{[3,5-dichloro-4-(2-chloro-4-nitrophenoxy)phenyl]sulfonyl}pyridine-2-carboximidamide] |  | −
13 |  | + | N=C(NS(=O)(=O)c1cc(Cl)c(Oc2ccc([N+](=O)[O-])cc2Cl)c(Cl)c1)c1ccncc1 [Example 29, N-{[3,5-dichloro-4-(2-chloro-4-nitrophenoxy)phenyl]sulfonyl}pyridine-4-carboximidamide] |  | +
14 |  | − | N=C(CCl)NS(=O)(=O)c1cc(Cl)c(Oc2ccc([N+](=O)[O-])cc2)c(Cl)c1 [Example 31, 2-chloro-N-{[3,5-dichloro-4-(4-nitrophenoxy)phenyl]sulfonyl}ethanimidamide] |  | +
15 |  | − | N=C(NS(=O)(=O)c1cc(Cl)c(Oc2ccc([N+](=O)[O-])cc2)c(Cl)c1)c1cccnc1 [Example 60, N-{[3,5-dichloro-4-(4-nitrophenoxy)phenyl]sulfonyl}pyridine-3-carboximidamide] |  | +
16 |  |  | O=S(=O)(Nc1ccc(F)cc1C(F)(F)F)c1ccc(Oc2ncc(C(F)(F)F)cc2Cl)cc1 [Example 271, 4-{[3-chloro-5-(trifluoromethyl)pyridin-2-yl]oxy}-N-[4-fluoro-2-(trifluoromethyl)phenyl]benzenesulfonamide] | + | +
17 |  |  | O=S(=O)(Nc1ccc(Oc2ncc(C(F)(F)F)cc2Cl)cc1)c1cccc(C(F)(F)F)c1 [Example 295, N-(4-(3-chloro-5-(trifluoromethyl)pyridin-2-yloxy)phenyl)-3-(trifluoromethyl)benzenesulfonamide] | + | +
18 |  |  | O=S(=O)(Nc1ccc(Oc2cc(C(F)(F)F)ccn2)cc1)c1cccc(Cl)c1 [Example 297, 3-chloro-N-(4-(4-(trifluoromethyl)pyridin-2-yloxy)phenyl)benzenesulfonamide] | − | +
19 |  |  | O=S(=O)(Nc1ccc(Oc2cc(C(F)(F)F)ccn2)cc1)c1cccc(C(F)(F)F)c1 [Example 298, 3-(trifluoromethyl)-N-(4-(4-(trifluoromethyl)pyridin-2-yloxy)phenyl)benzenesulfonamide] | + | +
20 |  |  | O=S(=O)(Nc1ccc(Oc2cc(C(F)(F)F)ccn2)cc1)c1ccccc1C(F)(F)F [Example 299, 2-(trifluoromethyl)-N-(4-(4-(trifluoromethyl)pyridin-2-yloxy)phenyl)benzenesulfonamide] | − | +
21 |  |  | O=S(=O)(c1cccc(Cl)c1)N1CCC(Oc2ccccc2C(F)(F)F)CC1 [Example 300, 1-(3-chlorophenylsulfonyl)-4-(2-(trifluoromethyl)phenoxy)piperidine] | + | +
22 |  |  | O=S(=O)(c1cccc(C(F)(F)F)c1)N1CCC(Oc2ccccc2C(F)(F)F)CC1 [Example 301, 4-(2-(trifluoromethyl)phenoxy)-1-(3-(trifluoromethyl)phenylsulfonyl)piperidine] | + | +
23 |  |  | O=S(=O)(c1ccccc1C(F)(F)F)N1CCC(Oc2ccccc2C(F)(F)F)CC1 [Example 302, 4-(2-(trifluoromethyl)phenoxy)-1-(2-(trifluoromethyl)phenylsulfonyl)piperidine] | + | +
24 |  |  | O=C(Nc1ccccc1C(F)(F)F)N1CCC(Oc2ccccc2C(F)(F)F)CC1 [Example 306, 4-(2-(trifluoromethyl)phenoxy)-N-(2-(trifluoromethyl)phenyl)piperidine-1-carboxamide] | − | −
25 |  | − | O=C(Nc1cc(C(F)(F)F)ccc1Cl)N1CCC(Oc2ccccc2C(F)(F)F)CC1 [Example 307, N-(2-chloro-5-(trifluoromethyl)phenyl)-4-(2-(trifluoromethyl)phenoxy)piperidine-1-carboxamide] |  | 
26 |  | − | O=C(Nc1cc(Cl)ccc1Cl)N1CCC(Oc2ccccc2C(F)(F)F)CC1 [Example 308, N-(2,5-dichlorophenyl)-4-(2-(trifluoromethyl)phenoxy)piperidine-1-carboxamide] |  | 
27 |  | − | O=C(Nc1cc(C(F)(F)F)ccc1Cl)N1CCC(Oc2ncccn2)CC1 [Example 309, N-(2-chloro-5-(trifluoromethyl)phenyl)-4-(pyrimidin-2-yloxy)piperidine-1-carboxamide] |  | 
